Laboratory results: article PMC4050313, “Panaxadiol and Panaxatriol Derivatives as Anti-Hepatitis B Virus Inhibitors” (Natural Products and Bioprospecting, 2014)
pIC50: −log10 of the molar value.

Key:
[1] = Cytotoxicity, modified MTT method; format: cell-based; conditions: human; 50 % cytotoxicity concentration in HepG 2.2.15 cells; means of two independent experiments
Description: (§1) Based on our previous description, inhibitory activity on HBV (HBsAg, HBeAg and HBV DNA) was evaluated. […] Cytotoxicity was assayed with a modified 3-(4,5-dimethylthiazole-2-yl)-2,5-diphenyltetrazolium bromide (MTT) method (Gibco Invitrogen, Carlsbad, CA, USA). The anti-HBV antigen secretion activities were determined by the enzyme linked immunosorbent assay (ELISA; Autobio Diagnostics Co., Ltd, China). A real-time PCR assay was applied to detect the inhibitory activity on HBV DNA replication.

[2] = test system: HBeAg secretion; test: microbe, parasite or virus in culture; format: cell-based, Hepatitis B virus; conditions: Hepatitis B virus, HepG2.2.15, read-out: HBeAg IC50
Description: as §1

[3] = test system: HBsAg secretion; test: microbe, parasite or virus in culture; format: cell-based, Hepatitis B virus; conditions: Hepatitis B virus, HepG2.2.15, read-out: HBsAg IC50
Description: as §1

[4] = test system: HBV DNA replication; test: Inhibition of HBV DNA replication, real-time PCR, HepG 2.2.15 cells; format: cell-based, Hepatitis B virus; conditions: Hepatitis B virus, HepG2.2.15; HepG 2.2.15 cells; means of two independent experiments
Description: as §1

[5] = test system: liver injury induced by D-galactosamine and lipopolysaccharide; parameters: method as in PMID 12880307; conditions: liver injury induced by D-galactosamine and lipopolysaccharide in mice; cited from earlier work
[6] = test system: herpes simplex virus type I; parameters: method as in doi:10.3109/13880209509088139; conditions: cited from earlier work

CC1(C)CCC[C@](C)([C@H]2CC[C@]3(C)[C@@H]2[C@H](O)C[C@@H]2[C@@]4(C)CC[C@H](O)C(C)(C)[C@@H]4CC[C@]23C)O1 [PD, Panaxadiol]
CC50 [1]: 0.923 mM
pIC50 [2]: < 2.64
pIC50 [3]: < 2.64
pIC50 [4]: 3.83

CC1(C)CCC[C@](C)([C@H]2CC[C@]3(C)[C@@H]2[C@H](O)C[C@@H]2[C@@]4(C)CC[C@H](O)C(C)(C)[C@@H]4[C@@H](O)C[C@]23C)O1 [PT, Panaxatriol]
CC50 [1]: > 2.42 mM
pIC50 [2]: < 2.62
pIC50 [3]: < 2.62
pIC50 [4]: 3.17

CC(C)=CCC[C@](C)(O[C@@H]1O[C@H](CO)[C@@H](O)[C@H](O)[C@H]1O)[C@H]1CC[C@]2(C)[C@@H]1[C@H](O)C[C@@H]1[C@@]3(C)CC[C@H](O[C@@H]4O[C@H](CO)[C@@H](O)[C@H](O)[C@H]4O[C@@H]4O[C@H](CO)[C@@H](O)[C@H](O)[C@H]4O)C(C)(C)[C@@H]3CC[C@]12C [Rd, ginsenoside Rd]
hepatoprotective activity [5]: showed hepatoprotective activity

C[C@H](Cn1cnc2c(N)ncnc21)OCP(=O)(O)O [Tf, Tenofovir, reference compound]
CC50 [1]: > 1.72 mM
pIC50 [2]: 2.91
pIC50 [3]: 2.86
pIC50 [4]: 6.15

CC(C)=CCC[C@](C)(O[C@@H]1O[C@H](CO[C@@H]2O[C@H](CO)[C@@H](O)[C@H](O)[C@H]2O)[C@@H](O)[C@H](O)[C@H]1O)[C@H]1CC[C@]2(C)[C@@H]1[C@H](O)C[C@@H]1[C@@]3(C)CC[C@H](O[C@@H]4O[C@H](CO)[C@@H](O)[C@H](O)[C@H]4O)C(C)(C)[C@@H]3CC[C@]12C [XVII, ginsenoside XVII]
hepatoprotective activity [5]: showed hepatoprotective activity

CC(C)=CCC[C@](C)(O)[C@H]1CC[C@]2(C)[C@@H]1[C@H](O)C[C@@H]1[C@@]3(C)CC[C@H](O[C@@H]4O[C@H](CO[C@@H]5OC[C@@H](O)[C@H](O)[C@H]5O)[C@@H](O)[C@H](O)[C@H]4O[C@@H]4O[C@H](CO)[C@@H](O)[C@H](O)[C@H]4O)C(C)(C)[C@@H]3CC[C@]12C [chikusetsusaponin III]
ID50, reduced yield of herpes simplex virus type I [6]: 0.029 mM

CC(C)=CCC[C@](C)(O[C@@H]1O[C@H](CO)[C@@H](O)[C@H](O)[C@H]1O)[C@H]1CC[C@]2(C)[C@@H]1[C@H](O)C[C@@H]1[C@@]3(C)CC[C@H](O)C(C)(C)[C@@H]3[C@@H](O[C@@H]3O[C@H](CO)[C@@H](O)[C@H](O)[C@H]3O[C@@H]3OC[C@@H](O)[C@H](O)[C@H]3O)C[C@]12C [notoginsenoside R1]
hepatoprotective activity [5]: showed hepatoprotective activity
